In US6362234B1, “Water-soluble prodrugs of propofol for treatment of migrane” (Vyrex Corporation, priority 2000, dated 2002):
Where a name gives a salt, the structure may show the parent alone.

Columns and labels:
[1] = tested on: low density lipoprotein (LDL); assay: Copper-promoted oxidation of LDL (conjugated dienes); type: biochemical, human; conditions: 5 μM compound; 100 μg/ml LDL, 5 μM copper sulfate
Source text: (§1) The following experiment is based on the use of low density lipoprotein (LDL) as an oxidizable substrate. LDL is one of the plasma lipoproteins whose oxidation is thought to contribute to the pathogenesis of atherosclerosis. The copper-promoted, the hydrogen peroxide-/horseradish peroxidase-promoted and the myeloperoxidase-promoted oxidation of LDL are models for the free radical-induced oxidation of LDL that occurs in vivo.
(§2) LDL was isolated from heparinized plasma of normal human donors by ultracentrifugation. Most of the experiments described in this study were performed immediately after isolation. Examples and further details of the experimental procedures may be found in N. Santanam et al J. Clin Invest. 95(6):2594 (1995) and FEBS Letters, 414:549-551 (1997).
(§3) The formation of conjugated dienes was measured in a spectrophotometer (model DB-3500; SLM-AMINCO, Urbana, Ill.) equipped with a 12 position sample changer. Samples and references were measured continuously for periods of up to several hours. Typically, 100 μg/ml of LDL was incubated in PBS with 1 U horseradish peroxidase (type X, 260 U/mg) in the presence of 50 μM H2O2. For copper-mediated oxidation, 100 μg/ml LDL was incubated with 5 μM copper sulfate solution.

[2] = tested on: low density lipoprotein (LDL); assay: Hydrogen peroxide/horseradish peroxidase-promoted oxidation of LDL (conjugated dienes); type: biochemical, human; conditions: 5 μM compound; 100 μg/ml LDL, 1 U horseradish peroxidase, 50 μM H2O2
Source text: as §1, §2, §3

[3] = In vivo hydrolysis of propofol hemisuccinate after gavage; conditions: rats, two day observation period following the dosing
Method: (§4) Propofol hemisuccinate sodium salt in aqueous solution was administered to adult male Sprague-Dawley rats by gavage. Blood was collected at 2, 4, 8 and 24 hours after dosing, and analyzed by HPLC as described in example 3.

[4] = male, Sprague-Dawley, rat, in vivo
Method: as §4

With `CC(C)c1cccc(C(C)C)c1OC(=O)CCC(=O)O` (as salt: succinate) [propofol hemisuccinate, 2,6-diisopropylphenyl hydrogen succinate] the melting point was 101 to 102 °C.
In the case of “mono(propofol) phosphate disodium salt [(mono)propofol phosphate]”, the “Effect on copper-promoted oxidation of LDL” value [1] is reported as “not significantly affected” and the “Effect on oxidation of LDL in the presence of horseradish peroxidase/hydrogen peroxide” value [2] is reported as “not significantly affected”.
With `CC(C)c1cccc(C(C)C)c1OC(=O)CCC(=O)O` [propofol hemisuccinate, 2,6-diisopropylphenyl hydrogen succinate] the “Condition of the animals after dosing” value [3] was “All the animals remained healthy and active” and the “Time of peak blood levels of propofol after dosing” value [4] was 2 to 4 h.
